{"source": "patent US20130190324A1", "about": "“TOPICAL OCULAR DRUG DELIVERY” (The Regents of the University of Colorado, a body corporate, priority 2011, published 2013)", "key": {"calf cornea": {"tested_on": "calf cornea", "test": "In vitro transport of substrate cassette across normoxic and hypoxic calf cornea", "conditions": "for apparent permeability (Papp) across hypoxic vs normoxic tissue (in words) / transport across hypoxic vs normoxic tissue (in words): calf cornea; for transport across hypoxic vs normoxic tissue (in words): cassette 100 μM", "description": "(§1) Animals used in this study were those that were sacrificed as part of other experiments approved by the Institutional Animal Care Committee of the Colorado State University (Fort Collins) and University of Colorado Anschutz Medical campus. Hypoxic and normoxic calf eyes were obtained from the Department of Physiology, School of Veterinary Medicine, Colorado State University (Fort Collins, Colo.). Briefly, 1 day old male Holstein calves (n=4) were kept in hypobaric hypoxic chambers (PB=445 mm Hg) for 2 weeks. For control experiment, age matched calves (n=4) were kept at ambient altitude (PB=650 mm Hg) and normoxia for two weeks. Hypoxic and normoxic rat eyes were obtained from the Department of Medicine, University of Colorado Anschutz Medical campus (Aurora, Colo.). Sprague Dawley rats (n=4) were maintained in hypobaric hypoxic chambers (PB=380 mm Hg) for 6 weeks and age matched controls were kept at ambient pressure and normoxia.\n(§2) In vitro transport studies across hypoxic and control calf cornea and sclera-choroid-RPE (SCRPE) were carried using cassette dosing approach. A cassette of drug transporter substrates, Gly-Sar (PEPT), valacylovir (ATB^0+), MPP^+ (OCT), and phenylacetic acid (MCT) at a concentration of 100 μM each in assay buffer was prepared. Briefly, the calf eyes were harvested immediately after euthanasia and transferred to the laboratory on ice. Upon arrival in the lab, the eyes were washed with assay buffer and cleaned from muscle and unwanted tissues. Anterior and posterior parts were separated by circumferential cut at the limbus. Vitreous was removed and the neural retina was separated from the choroid-RPE by filling the eye cup with assay buffer. The retina afloat in assay buffer was isolated and the eye cup was divided into two pieces (˜1.5×1.5 cm) of sclera-choroid-RPE. Isolated tissues were mounted on modified Ussing chambers (Navicyte, Sparks, Nev.) such that the episcleral side of SCRPE or epithelial side of cornea was facing the donor chamber and retinal side or endothelial side of the cornea was facing the receiver chamber. The chambers were filled with 1.5 ml of assay buffer at 37° C. with (donor side) or without (receiver side) the cocktail of drug transporter substrates. For the study of effect of transporter inhibitors, cocktail mixture (500 μM) of transporter inhibitors was added on both donor and acceptor sides.\n(§3) During the transport study, the bathing fluids were maintained at 37° C. using circulating warm water. The pH of the fluids was maintained at pH 7.4 using 95% air-5% CO2 aeration. Samples were collected (200 μL) from receiver side every hour for 6 hours and the removed volume was replaced with fresh assay buffer pre-equilibrated to 37° C. Drug levels were analyzed using a LC-MS/MS assay. Permeation data were corrected for dilution of the receiver concentrations with sample volume replenishment.\n(§4) Analyte concentrations in transport study samples were measured using LC-MS/MS method after 5-fold dilution with acetonitrile to reduce the salt concentrations. A cassette analysis method was developed for simultaneous analysis of Gly-Sar, valacylovir, and MPP Phenyl acetic acid was analyzed separately with a negative ionization method and a normal phase separation method. An API-3000 triple quadrupole mass spectrometry (Applied Biosystems, Foster City, Calif., USA) coupled with a PerkinElmer series-200 liquid chromatography (Perkin Elmer, Waltham, Mass., USA) system was used for analysis. Gly-Sar, valacylovir and MPP were separated on Supelco C-5 column (2.1×10 mm, 3 μm) using water containing 0.1% formic acid (A) and acetonitrile:methanol (50:50 v/v) containing 0.1% formic acid (B) as mobile phase. A linear gradient elution at a flow rate of 0.3 ml/min with a total run time of 9 min was employed. Phenyl acetic acid was separated in normal phase separation mode on Obelisc-N silica column (2.1×10 mm, 3 μM) using 5 mM ammonium formate at pH 3.5 (A) and acetonitrile (B) as mobile phase."}, "[1]": {"tested_on": "human sclera-choroid-RPE (SCRPE)", "test": "In vitro transport of transporter substrate cassette across human sclera-choroid-RPE", "conditions": "human SCRPE; for sclera to retina transport in presence of transporter specific inhibitor (in words): inhibitor cocktail 500 μM; for sclera to retina transport compared with retina to sclera transport (in words): substrate cassette 100 μM", "method": "(§5) In vitro transport studies across human cornea and sclera-choroid-RPE (SCRPE) were carried out according to previously published method using the cassette dosing approach. Briefly, cassette of drug transporter substrate including Gly-Sar (PEPT), L-tryptophan (ATB^0+), MPP^+ (OCT), and phenyl acetic acid (MCT) at concentration of 100 μM in assay buffer was prepared. Briefly, the human eyes were washed with assay buffer and cleaned from muscle and conjunctiva tissues, and anterior and posterior parts were separated by giving circumferential cut behind the limbus. Small sclera part was left with cornea, which helps in mounting of cornea on Ussing chambers. Neural retina was separated from the choroid-RPE by filling the eye cup with assay buffer, and floating retina was collected. After separation of retina, eye cup was divided into two rectangular pieces (˜1.5×1.5 cm) of sclera-choroid-RPE. Isolated tissues were mounted on modified Ussing chambers (Navicyte, Sparks, Nev.) such that the episcleral side of SCRPE or epithelial side of cornea was facing the donor chamber and retinal side or endothelial side of cornea is facing the receiver chamber. To study the effect of directionality on transport, one set of Ussing chambers mounted so that sclera side facing the donor side and another set was mounted so that choroid-RPE facing the donor side. The effect of directionality of transport across cornea was not evaluated. The chambers were filled with 1.5 ml of assay buffer with (donor side) or without (receiver side) the cocktail of drug transporter substrates. For study of effect of transporter inhibitors, cocktail mixture (500 μM) of transporter inhibitor was added on both donor and acceptor side.\n(§6) During the transport study, the bathing fluids were maintained at 37° C. using a circulating warm water and pH 7.4 using 95% air-5% CO2 aeration. Samples were collected (200 μL) form receiver side every hour for 6 hr and the lost volume was compensated with fresh assay buffer pre-equilibrated at 37° C. The drug levels were analyzed using a LC-MS/MS assay. Permeation data were corrected for dilution of the receiver solution with sample volume replenishment.\nAnalytes concentrations in transport study samples were analyzed using LC-MS/MS method after 5-fold dilution with acetonitrile to reduce the salt concentrations. Cassette analysis method was developed for simultaneous analysis of Gly-Sar, L-tryptophan and MPP^+. Phenyl acetic acid was analyzed separately in negative ionization method and normal phase separation method. An API-3000 triple quadrupole mass spectrometry (Applied Biosystems, Foster City, Calif., USA) coupled with a PerkinElmer series-200 liquid chromatography (Perkin Elmer, Walthm, Mass., USA) system was used for analysis. Gly-Sar, L-tryptophan and MPP^+ were separated on Supelco C-5 column (2.1×10 mm, 3 μm) using water containing 0.1% formic acid (A) and acetonitrile:methanol (50:50 v/v) containing 0.1% formic acid (B) as mobile phase and a linear gradient elution at a flow rate of 0.3 ml/min with total run time of 9 min. Phenyl acetic acid was separated in normal phase separation mode using Obelisc-N silica column (2.1×10 mm, 3 μM) using 5 mM ammonium formate, pH 3.5 (A) and acetonitrile (B) as mobile phase in linear gradient mode at flow rate of 0.3 ml with total run time of 6 min. Gly-Sar, L-tryptophan, and MPP^+ were analyzed in positive ionization mode with following multiple reaction monitoring (MRM) transitions: 147→90 (Gly-Sar); 205→188 (L-tryptophan); 170→128 (MPP^+). Phenyl acetic acid was analyzed in negative ionization mode with following multiple reaction monitoring (MRM) transitions: 135→91 (Phenyl acetic acid)."}, "[2]": {"tested_on": "calf sclera-choroid-RPE (SCRPE)", "test": "In vitro transport of substrate cassette across normoxic and hypoxic calf SCRPE", "conditions": "for apparent permeability (Papp) across hypoxic vs normoxic tissue (in words) / transport across hypoxic vs normoxic tissue (in words): calf SCRPE; for transport across hypoxic vs normoxic tissue (in words): cassette 100 μM", "description": "as §1, §2, §3, §4"}, "human cornea": {"tested_on": "human cornea", "test": "In vitro transport of transporter substrate cassette across human cornea", "conditions": "for transport in presence of transporter inhibitor (in words): apical to basal, inhibitor cocktail 500 μM", "method": "as §5, with “The effect of directionality of transport across cornea was not evaluated.” left out\nas §6\nAnalytes concentrations in transport study samples were analyzed using LC-MS/MS method after 5-fold dilution with acetonitrile to reduce the salt concentrations. […] Phenyl acetic acid was analyzed separately in negative ionization method and normal phase separation method. […] Gly-Sar, L-tryptophan, and MPP^+ were analyzed in positive ionization mode with following multiple reaction monitoring (MRM) transitions: 147→90 (Gly-Sar); 205→188 (L-tryptophan); 170→128 (MPP^+). Phenyl acetic acid was analyzed in negative ionization mode with following multiple reaction monitoring (MRM) transitions: 135→91 (Phenyl acetic acid)."}}, "data": [{"smiles": "O=C(O)Cc1ccccc1", "note": "[phenyl acetic acid]", "values": [{"measurement": "apparent permeability (Papp) across hypoxic vs normoxic tissue (in words)", "setting": "calf cornea", "value": "significantly higher across hypoxic cornea than normoxic cornea"}, {"measurement": "transport across hypoxic vs normoxic tissue (in words)", "setting": "calf cornea", "value": "significantly higher than normoxic cornea"}, {"measurement": "sclera to retina transport in presence of transporter specific inhibitor (in words)", "setting": "[1]", "value": "no significant effect of inhibitor"}, {"measurement": "sclera to retina transport compared with retina to sclera transport (in words)", "setting": "[1]", "value": "retina to sclera transport was significantly higher than inward transport"}, {"measurement": "apparent permeability (Papp) across hypoxic vs normoxic tissue (in words)", "setting": "[2]", "value": "increased by several fold in hypoxic condition"}, {"measurement": "transport across hypoxic vs normoxic tissue (in words)", "setting": "[2]", "value": "increased by several fold in hypoxic condition"}, {"measurement": "transport across hypoxic vs normoxic tissue (in words)", "setting": "[2]; listed as phenylacetic acid", "value": "significantly higher across hypoxic SCRPE than normoxic SCRPE"}, {"measurement": "apparent permeability (Papp) across hypoxic vs normoxic tissue (in words)", "setting": "[2]; listed as phenylacetic acid", "value": "significantly higher across hypoxic SCRPE than normoxic SCRPE"}, {"measurement": "inward transport compared with outward transport (in words)", "setting": "human cornea; cornea", "value": "significantly higher than outward transport"}, {"measurement": "transport in presence of transporter inhibitor (in words)", "setting": "human cornea; human cornea", "value": "significantly inhibited"}]}, {"smiles": "C[n+]1ccc(-c2ccccc2)cc1.[I-]", "note": "[MPP^+, MPP^+ iodide]", "values": [{"measurement": "apparent permeability (Papp) across hypoxic vs normoxic tissue (in words)", "setting": "calf cornea", "value": "significantly higher across normoxic cornea than hypoxic cornea"}, {"measurement": "transport across hypoxic vs normoxic tissue (in words)", "setting": "calf cornea", "value": "significantly higher across normoxic calf cornea than hypoxic calf cornea"}, {"measurement": "decrease in cumulative % transport across hypoxic tissue", "setting": "calf cornea; hypoxic vs normoxic calf cornea", "value": 49, "unit": "%"}, {"measurement": "sclera to retina transport in presence of transporter specific inhibitor (in words)", "setting": "[1]", "value": "significantly inhibited"}, {"measurement": "inhibition of sclera to retina transport in presence of specific inhibitors", "setting": "[1]; inhibitor cocktail 500 μM (metformin for MPP+)", "value": 1.7, "unit": "fold"}, {"measurement": "sclera to retina transport compared with retina to sclera transport (in words)", "setting": "[1]", "value": "significantly higher"}, {"measurement": "apparent permeability (Papp) across hypoxic vs normoxic tissue (in words)", "setting": "[2]", "value": "significantly higher across normoxic SCRPE than hypoxic SCRPE"}, {"measurement": "transport across hypoxic vs normoxic tissue (in words)", "setting": "[2]", "value": "significantly decreased in hypoxic calf SCRPE"}, {"measurement": "transport across hypoxic vs normoxic tissue (in words)", "setting": "[2]; listed as MPP+", "value": "significantly higher across normoxic calf SCRPE than hypoxic calf SCRPE"}, {"measurement": "decrease in cumulative % transport across hypoxic tissue", "setting": "[2]; hypoxic vs normoxic calf SCRPE", "value": 61, "unit": "%"}, {"measurement": "transport lower in presence of OCT inhibitor metformin", "setting": "human cornea; human cornea", "value": 2.6, "unit": "fold"}, {"measurement": "transport in presence of transporter inhibitor (in words)", "setting": "human cornea; human cornea", "value": "significantly inhibited"}]}]}
